Results taken from patent US11573241B2, “Total cellular iron as a marker of cancer stem cells and uses thereof” (Institut National de la Sante et de la Recherche Medicale …, priority 2016, dated 2023).
Where a SMILES comes first, the peptide text is derived from it. The star is where a group is joined. Cbz = O=C(OCc1ccccc1)*; CH2F = FC*

Experiments:
[1] = tested on: HMLER CD24^low cells; assay: Immunoblotting of iron homeostasis regulatory proteins; format: cell-based, human; conditions: 24 h
[2] = tested on: patient-derived xenografts (PDX 1 and 2); format: in vivo, NOD/SCID mice; conditions: intra-peritoneal, 4 weeks
Description: Patient derived xenografts (PDXs). PDXs were established as previously described in Charafe-Jauffret et al., Cancer Res. 73, 7290-7300 (2013) from tissue samples collected prospectively at the Institut Paoli-Calmettes (IPC). Samples of human origin and associated data were obtained from the IPC/CRCM Tumor Bank that operates under authorization #AC-2007-33 granted by the French Ministry of Higher Education and Research. Before scientific use of samples and data, patients were appropriately informed and asked to consent in writing, in compliance with French and European regulations. The project was approved by the IPC Institutional Review Board. Cells from 2 different patient-derived xenografts (PDX 1 and 2) were transplanted orthotopically into fat pads of 4-week-old female non-obese diabetic/severe combined immunodeficient (NOD/SCID) mice (NOD.CB17-Prkdcscid/J, Charles River France) after mechanical treatment and enzymatic digestion using collagenase/hyaluronidase (StemCell Technologies) to generate single-cell suspension suitable for implantation in vivo. PDXs were primarily established as previously described in Caraft-Jauffret et al., and evaluated for ALDEFLUOR-positive CSCs. We injected single cancer cells into fat pads of NOD/SCID mice and monitored tumor growth. When tumor size reached approximately 150 mm^3, Sal and AM5 treatments were performed as indicated above for FIGS. 14 and 15. Tumor growth was compared with that of docetaxel and placebo-treated controls. After 4 weeks of treatment, the animals were sacrificed and the proportion of ALDEFLUOR-positive CSCs was measured in each residual tumor. All animal studies were approved by the French Ministry of Higher Education and Research (authorization number D130554) and ethical committee (number 14), of Aix-Marseille Université. No randomization was used and experimenters were blinded to drug treatments and tissue analyses.
Aldefluor assay. The analysis was processed on single-cell suspension from the PDXs obtained as described above. The ALDEFLUOR Kit (Stemcell™ Technologies) was used to isolate the population with high aldehyde dehydrogenase enzymatic activity using an LSR2 cytometer (Becton Dickinson Biosciences), as previously described in Charafe-Jauffret et al. To eliminate cells of mouse origin from the PDXs, we used staining with an anti-H2Kd antibody (BD Biosciences, 1:200, 20 min on ice) followed by staining with a secondary antibody labeled with phycoerythrin (PE; Jackson Laboratories, 1:250, 20 min on ice).

[3] = tested on: cells from treated PDX 1 and 2; assay: Limiting dilution assay, tumor-seeding capacity (ELDA); format: in vivo, NOD/SCID mice; conditions: re-implantation into secondary mice
Description: Limiting dilution assay. Cells from 4-week treated mice were re-implanted into one to four secondary NOD/SCID mice with injection of 10, 50, 500 or 5000 cells for each treated tumor to functionally evaluate the proportion of residual CSCs in each treatment group (Unt., Doc, Sal, AM5) for the PDX 1 and 2. Each mouse that developed a tumor reaching a size of 10 mm was considered as a tumor-bearing mouse.
Estimation of number of CSCs in vivo. The number of mammary gland outgrowths obtained in a fat pad after cell re-implantation is currently used to evaluate the number of stem cells able to repopulate this fat pad. It is based on self-renewal and differentiation abilities, two hallmarks of stem cells. In the same manner, estimation of the number of CSCs can be obtained from tumor outgrowth data collected after limited dilution re-implantation of each group of treatments, based on tumor-initiating capacities of CSCs. For calculation, an online tool is available using Extreme Limiting Dilution Analysis (ELDA) (http://bioinf.wehi.edu.au/software/elda/) for limiting dilution analysis based on the Poisson single-hit model according to the number of outgrowths observed and the number of pat pad re-implanted for each cell dilution.

[4] = tested on: HMLER CD24^low cells; assay: Annexin V/PI assay; format: cell-based, human; conditions: 48 h
Experimental: (§1) Annexin V/PI assay. Cells were treated as indicated. After treatment, cell death was quantified using Annexin V-FITC/Propidium Iodide (PI) assay according to the manufacturer's protocol (FITC Annexin V Apoptosis Detection Kit II, 556570, BD Pharmingen™) and analyzed by a LSRFortessa™ flow cytometer (BD Bioscience, San Jose, Calif.). The data were processed using Cell Quest software (BD Biosciences).

[5] = tested on: iCSCL-10A2 cells; assay: Annexin V/PI assay; format: cell-based; conditions: Sal or AM5 0.5 μM, 72 h
Experimental: as §1

[6] = tested on: HMLER cells; assay: Flow cytometry of CD44 and CD24 expression after TGF beta; format: cell-based, human
Experimental: FIG. 11. […] Briefly, HMLER cells were treated as indicated with TGF beta in the presence or absence of transferrin. CD44 and CD24 expression were assessed by flow cytometry. CD44^+ indicates the percent of CD44^high/CD24^Low/− population gated.

[7] = tested on: MCF-7 cells; assay: Flow cytometry of CD44 and CD24 expression after OSM; format: cell-based, human; conditions: OSM 100 ng/ml, 48 h
Experimental: FIG. 8. Knock down of ferritin expression interferes with the OSM-mediated induction of CD44^highCD24^low/− in MCF-7 cells. MCF-7 were transfected with siRNA control or siRNA specifically targeting ferritin mRNA (FTH1) during 48 h and then the cells were incubated with OSM (100 ng/ml) for 48 h. a. Analysis of CD44 and CD24 expression by flow cytometry. Left panel, CSC indicates the percent of CD44^high/CD24^Low or negative (Low/−) population gated. Right panels, histogram representations of CD44 or CD24 expression (dark grey), or by the isotype control (light grey). b. Graphs representing the percent mean of CD44^high/CD24^Low/− population gated. c. Graphs representing the mean fluorescence intensity (IF) of CD24 and CD44, respectively. d. Quantification of the ALDH+ population in MCF-7 cells treated as indicated above, and measured by flow cytometry. Bars and error bars correspond to mean values and s.d. of two biological replicates, respectively. **P<0.01, ns, not significant, Student's t-test.
Small interfering RNA transfection. Suitable small interfering RNAs (siRNA) were designed with the Qiagen RNA interference designer tool for specific down-regulation of FTH1. The sequence used for FTH1 was 5′-[…]-3′ (S100300251) targeting the sequence following 5′-[…]-3′ and a negative control siRNA for FTH1 (5′-[…]-3′, (S103089212). Subconfluent cells were transfected with siRNA in Opti-MEM using the Oligofectamine™ reagent (Invitrogen) for 48 h. Then, cells were treated with OSM (100 ng/mL for 48 h) prior to protein or RNA extraction and flow cytometry analysis for markers as indicated.

[8] = tested on: MCF-7 cells; assay: Immunoblotting of EMT markers and ferritin after OSM; format: cell-based, human; conditions: OSM 100 ng/ml
Experimental: FIG. 7. Knock down of ferritin expression interferes with the OSM-mediated induction of EMT in MCF-7 cells. left, Immunoblotting showing levels of EMT markers in MCF-7 cells treated or not with 100 ng/ml of OSM for 72 h. right Immunoblotting showing levels of ferritin and fibronectin proteins in MCF-7 cells transfected with siRNA control (scramble) or siRNA targeting specifically ferritin mRNA (FTH1) during 48 h and then the cells were incubated with OSM (100 ng/ml) for 48 h. Beta-tubulin is used as loading control. MCF-7 were transfected.
Immunoblotting. Cells were treated as indicated, then washed twice with PBS and lysed with 2× Laemmli buffer. Cell extracts were heated at 95° C. for 5 min, sheared through a 26-gauge needle and quantified with a Nanodrop 2000 (Thermo Scientific). Protein lysates (˜100 μg) were resolved by SDS-PAGE electrophoresis and transferred onto PVDF membranes (Amersham). Membranes were blocked with 5% BSA, 0.1% Tween-20/TBS for 1 h. The blots were then probed with the relevant primary antibodies in 5% BSA, 0.1% Tween-20/TBS at 4° C. overnight with gentle agitation. Membranes were washed with 0.1% Tween-20/TBS for 30 min and were incubated with secondary antibodies for 1 h at RT. Antigens were detected by ECL (Amersham). Imaging was performed using a ChemiDoc™ XRS+ System (Biorad).

## CCCNC(=O)[C@H]1O[C@@H]1C(=O)N[C@H](C(=O)N1CCC[C@H]1C(=O)O)[C@@H](C)CC [CA-074]
[1]
  ferritin degradation under AM5, cathepsin B inhibition: degradation was prevented

## CC(=O)O[C@@]12CO[C@@H]1C[C@H](O)[C@@]1(C)C(=O)[C@H](O)C3=C(C)[C@@H](OC(=O)[C@H](O)[C@@H](NC(=O)OC(C)(C)C)c4ccccc4)C[C@@](O)([C@@H](OC(=O)c4ccccc4)[C@H]21)C3(C)C [Doc, docetaxel, reference compound]
[2]
  tumor growth: less effective
[3]
  tumor-seeding capacity of tumor cells treated in vivo: lower response than treatment with either AM5 or AM5+Doc

## CC(=O)N[C@@H](CS)C(=O)O [NAC, N-acetyl-L-cysteine]
[4]
  effect of co-treatment on cell death induced by Sal and AM5: partly prevented Sal and AM5 from killing these cells

## COC(=O)C[C@H](NC(=O)[C@H](C)NC(=O)[C@@H](NC(=O)OCc1ccccc1)C(C)C)C(=O)CF [Z-VAD-FMK] (Cbz-Val-Ala-Asp(OMe)-CH2F)
[5]
  effect of inhibitor on cell death induced by Sal or AM5: no effect on the cell death profiles

## CCOC(=O)c1ccc(NC2CCCCC2)c(N)c1 [ferrostatin-1]
[5]
  effect of inhibitor on cell death induced by Sal or AM5: partially prevented

## CN1C(=O)C(Cc2c[nH]c3ccccc23)NC1=S (centres unmarked) [necrostatin-1]
[5]
  effect of inhibitor on cell death induced by Sal or AM5: no effect on the cell death profiles

## TGF-31: cytokine that increases the CD44^high/CD24^Low/− population in HMLER cells
[6]
  percent of CD44^high/CD24^Low/− population: 21%

## Transferrin: iron carrier protein taken up via transferrin receptor
[6]; with TGF beta
  effect on TGF-beta-mediated induction of CD44^highCD24^Low/−: potentiates the TGF-beta-mediated induction

B1: OSM: cytokine oncostatin M, implicated in inducing EMT (protein, UniProt P13725 26-221, looked up)
Oncostatin-M: AAIGSCSKEYRVLLGQLQKQTDLMQDTSRLLDPYIRIQGLDVPKLREHCRERPGAFPSEETLRGLGRRGFLQTLNATLGCVLHRLADLEQRLPKAQDLERSGLNIEDLEKLQMARPNILGLRNNIYCMAQLLDNSDTAEPTKAGRGASQPPTPTPASDAFQRKLEGCRFLHGYHRFMHSVGRVFSKWGESPNRSRR
[7]
  % of CD24^high population: remains unchanged
  % of CD44^high population: 76%
  % of CD44^highCD24^Low/− CSC population: 4.84%
[8]
  ferritin protein level: increase in ferritin protein level
[8]; 72 h
  EMT marker protein levels: increase of two EMT markers Fibronectin and Snail, and the decrease of E-cad protein levels
